Source: paper PMC3876893 (Journal of the American Chemical Society, 2013)

Biological target: CalE8 (Micromonospora echinospora, UniProt Q8KNG1)
Assay: in vitro reconstitution, HPLC/LCMS of base-released polyketides
Format: biochemical
Conditions: NADPH co-substrate (0.5 mM each), pH 7.0, 24 °C, no CalE7 thioesterase

Sequence of CalE8 (Q8KNG1 1-1919): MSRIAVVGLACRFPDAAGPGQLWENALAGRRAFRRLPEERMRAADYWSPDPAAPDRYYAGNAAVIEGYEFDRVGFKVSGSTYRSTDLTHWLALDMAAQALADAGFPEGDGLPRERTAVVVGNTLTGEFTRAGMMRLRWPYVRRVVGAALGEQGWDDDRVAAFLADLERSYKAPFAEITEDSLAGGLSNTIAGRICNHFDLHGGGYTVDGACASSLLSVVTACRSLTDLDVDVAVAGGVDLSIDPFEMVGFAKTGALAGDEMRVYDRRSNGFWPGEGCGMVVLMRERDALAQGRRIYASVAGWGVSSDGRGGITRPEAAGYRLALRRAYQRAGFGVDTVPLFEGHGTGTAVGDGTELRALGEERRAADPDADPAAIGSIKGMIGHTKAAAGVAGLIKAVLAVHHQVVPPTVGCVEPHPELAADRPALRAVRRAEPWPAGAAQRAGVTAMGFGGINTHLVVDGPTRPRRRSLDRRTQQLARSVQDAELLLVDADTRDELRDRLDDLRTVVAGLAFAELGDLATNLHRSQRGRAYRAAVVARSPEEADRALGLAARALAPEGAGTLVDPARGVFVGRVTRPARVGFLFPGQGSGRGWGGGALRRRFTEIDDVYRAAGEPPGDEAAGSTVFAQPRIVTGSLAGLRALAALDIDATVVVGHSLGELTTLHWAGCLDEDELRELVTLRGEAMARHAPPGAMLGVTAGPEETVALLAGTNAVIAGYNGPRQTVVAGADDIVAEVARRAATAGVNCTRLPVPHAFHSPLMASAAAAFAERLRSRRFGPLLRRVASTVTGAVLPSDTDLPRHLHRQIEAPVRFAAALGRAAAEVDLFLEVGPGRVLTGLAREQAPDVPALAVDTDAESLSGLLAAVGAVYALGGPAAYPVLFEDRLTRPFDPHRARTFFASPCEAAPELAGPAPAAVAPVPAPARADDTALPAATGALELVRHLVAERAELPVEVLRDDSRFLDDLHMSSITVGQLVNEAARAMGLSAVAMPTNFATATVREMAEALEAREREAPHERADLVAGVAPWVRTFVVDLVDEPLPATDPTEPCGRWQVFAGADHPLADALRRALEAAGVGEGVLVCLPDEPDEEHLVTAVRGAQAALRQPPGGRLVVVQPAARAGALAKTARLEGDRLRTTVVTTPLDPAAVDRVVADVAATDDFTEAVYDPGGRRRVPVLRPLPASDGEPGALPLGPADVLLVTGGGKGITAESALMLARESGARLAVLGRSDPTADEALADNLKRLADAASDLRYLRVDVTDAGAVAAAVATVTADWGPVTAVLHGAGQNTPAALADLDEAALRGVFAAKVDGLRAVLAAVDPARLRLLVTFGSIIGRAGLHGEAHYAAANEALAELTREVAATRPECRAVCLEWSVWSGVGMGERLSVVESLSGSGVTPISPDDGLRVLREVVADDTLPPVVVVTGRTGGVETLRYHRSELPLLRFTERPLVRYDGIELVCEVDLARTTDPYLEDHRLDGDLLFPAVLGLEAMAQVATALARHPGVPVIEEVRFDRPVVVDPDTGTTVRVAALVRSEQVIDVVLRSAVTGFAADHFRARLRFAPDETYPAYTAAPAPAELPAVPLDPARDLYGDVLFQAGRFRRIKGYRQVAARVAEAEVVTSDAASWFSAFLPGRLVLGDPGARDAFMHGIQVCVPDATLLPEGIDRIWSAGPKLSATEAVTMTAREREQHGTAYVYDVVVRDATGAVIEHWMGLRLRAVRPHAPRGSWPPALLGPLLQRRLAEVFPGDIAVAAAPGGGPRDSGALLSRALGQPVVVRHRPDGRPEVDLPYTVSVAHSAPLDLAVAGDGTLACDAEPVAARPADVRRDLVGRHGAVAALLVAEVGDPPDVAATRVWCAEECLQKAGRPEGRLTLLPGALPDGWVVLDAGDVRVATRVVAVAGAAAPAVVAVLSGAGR

CC(=O)NCCSC(=O)CC(=O)O [malonyl-SNAc]
in vitro reconstitution, HPLC/LCMS of base-released polyketides: polyketide profiles of CalE8 are consistent when MalCoA is replaced by malonyl-SNAc (MalSNAc)
